Experimental data as given in patent US20260125382A1, “COMPOUNDS FOR INHIBITING OR DEGRADING CDK2 AND/OR CDK9 AND MEDICINAL USE THEREOF” (KOREA RESEARCH INSTITUTE OF CHEMICAL TECHNOLOGY, priority 2022, published 2026).

What was measured:
CDK9 = target: T1, CDK9 (Homo sapiens, UniProt P50750); assay: CDK protein degradation activity (Western blotting), CDK9; type: cell-based; details: MDA-MB-231 cells, 16 hours, Western blot
T1 construct: endogenous in cells; host or cells: MDA-MB-231
Summary of the method: (§1)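 Protein levels were read by Western blot densitometry, tubulin serving as loading reference. Beforehand, MDA-MB-231 cells had been exposed for 16 hours to 100 nM, 1 μM or 10 μM compound, DMSO as control.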

CDK2 = target: T2, CDK2 (Homo sapiens, UniProt P24941); assay: CDK protein degradation activity (Western blotting), CDK2; type: cell-based; details: MDA-MB-231 cells, 16 hours, Western blot
T2 construct: endogenous in cells; host or cells: MDA-MB-231
Summary of the method: as §1

T1 sequence (P50750 whole entry): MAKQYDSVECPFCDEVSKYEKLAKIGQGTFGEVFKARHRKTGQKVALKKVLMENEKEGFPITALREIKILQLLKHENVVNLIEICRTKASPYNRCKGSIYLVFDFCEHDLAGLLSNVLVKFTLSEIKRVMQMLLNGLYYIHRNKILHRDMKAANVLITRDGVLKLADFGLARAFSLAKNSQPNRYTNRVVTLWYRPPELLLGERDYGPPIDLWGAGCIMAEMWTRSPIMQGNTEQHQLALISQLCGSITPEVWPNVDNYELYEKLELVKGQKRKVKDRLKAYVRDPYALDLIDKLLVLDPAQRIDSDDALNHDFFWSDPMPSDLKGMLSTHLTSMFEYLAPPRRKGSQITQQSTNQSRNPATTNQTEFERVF

Compound	Enzyme degradation CDK9 (% remaining) @ 0.1 μM (CDK9)	Enzyme degradation CDK9 (% remaining) @ 1 μM (CDK9)	Enzyme degradation CDK9 (% remaining) @ 10 μM (CDK9)	Enzyme degradation CDK2 (% remaining) @ 0.1 μM (CDK2)	Enzyme degradation CDK2 (% remaining) @ 1 μM (CDK2)	Enzyme degradation CDK2 (% remaining) @ 10 μM (CDK2)
O=C1CCC(N2C(=O)C=C(N3CCC(C(=O)NC[C@H]4CC[C@H](CN5CCN(c6ccc(Nc7ncnc8c7ncn8[C@H]7C[C@@H](NC(=O)Cc8ccccc8)C7)cc6)CC5)CC4)CC3)C2=O)C(=O)N1 (stereo partly drawn) [Compound 201, 1-(1-(2,6-dioxopiperidin-3-yl)-2,5-dioxo-2,5-dihydro-1H-pyrrol-3-yl)-N-(((1r,4r)-4-((4-(4-((9-((1s,3s)-3-(2-phenylacetamido)cyclobutyl)-9H-purin-6-yl)amino)phenyl)piperazin-1-yl)methyl)cyclohexyl)methyl)piperidin-4-carboxamide]	10%	10%	0%	50%	70%	50%
O=C1CC[C@@H](c2ccc(OCC(=O)N3CCC(CN4CCN(c5ccc(Nc6ncnc7c6ncn7C6CC(NC(=O)Cc7ccccc7)C6)cc5)CC4)CC3)cc2)C(=O)N1 (stereo partly drawn) [Compound 202, N-((1s,3s)-3-(6-((4-(4-((1-(2-(4-(2,6-dioxopiperidin-3-yl)phenoxy)acetyl)piperidin-4-yl)methyl)piperazin-1-yl)phenyl)amino)-9H-purin-9-yl)cyclobutyl)-2-phenylacetamide]	10%	0%	0%	30%	20%	40%
O=C1CC[C@@H](c2ccc(OCC(=O)N3CCC(CC(=O)N4CCN(c5ccc(Nc6ncnc7c6ncn7C6CC(NC(=O)Cc7ccccc7)C6)cc5)CC4)CC3)cc2)C(=O)N1 (stereo partly drawn) [Compound 203, N-((1s,3s)-3-(6-((4-(4-(2-(1-(2-(4-(2,6-dioxopiperidin-3-yl)phenoxy)acetyl)piperidin-4-yl)acetyl)piperazin-1-yl)phenyl)amino)-9H-purin-9-yl)cyclobutyl)-2-phenylacetamide]	20%	0%	0%	70%	40%	70%
O=C1CC[C@H](N2C(=O)c3cccc(NCC(=O)N4CCC5(CC4)CC(N4CCN(c6ccc(Nc7ncnc8c7ncn8[C@H]7C[C@@H](NC(=O)Cc8ccccc8)C7)cc6)CC4)C5)c3C2=O)C(=O)N1 [Compound 204, N-((1s,3s)-3-(6-((4-(4-(7-((2-(2,6-dioxopiperidin-3-yl)-1,3-dioxoisoindolin-4-yl)glycyl)-7-azaspiro[3.5]nonan-2-yl)piperazin-1-yl)phenyl)amino)-9H-purin-9-yl)cyclobutyl)-2-phenylacetamide]	0/0/0%	0/0/0%	0/0/0%	20/20/20%	20/20/20%	20/20/20%
O=C1CCC(c2ccc(OCC(=O)N3CCC4(CC3)CC(N3CCN(c5ccc(Nc6ncnc7c6ncn7[C@H]6C[C@@H](NC(=O)Cc7ccccc7)C6)cc5)CC3)C4)cc2)C(=O)N1 (stereo partly drawn) [Compound 205, N-((1s,3s)-3-(6-((4-(4-(7-(2-(4-(2,6-dioxopiperidin-3-yl)phenoxy)acetyl)-7-azaspiro[3.5]nonan-2-yl)piperazin-1-yl)phenyl)amino)-9H-purin-9-yl)cyclobutyl)-2-phenylacetamide]	0/0/0%	0/0/0%	0/0/0%	30/30/30%	30/30/30%	30/30/30%
O=C1CCC(N2C(=O)c3cccc(OCC(=O)N4CCC5(CC4)CC(N4CCN(c6ccc(Nc7ncnc8c7ncn8[C@H]7C[C@@H](NC(=O)Cc8ccccc8)C7)cc6)CC4)C5)c3C2=O)C(=O)N1 (stereo partly drawn) [Compound 206, N-((1s,3s)-3-(6-((4-(4-(7-(2-((2-(2,6-dioxopiperidin-3-yl)-1,3-dioxoisoindolin-4-yl)oxy)acetyl)-7-azaspiro[3.5]nonan-2-yl)piperazin-1-yl)phenyl)amino)-9H-purin-9-yl)cyclobutyl)-2-phenylacetamide]	0/0/0%	0/0/0%	0/0/0%	20%	20%	10%
O=C1CC[C@H](N2C(=O)c3ccc(NCC(=O)N4CCC5(CC4)CC(N4CCN(c6ccc(Nc7ncnc8c7ncn8[C@H]7C[C@@H](NC(=O)Cc8ccccc8)C7)cc6)CC4)C5)cc3C2=O)C(=O)N1 [Compound 207, N-((1s,3s)-3-(6-((4-(4-(7-((2-(2,6-dioxopiperidin-3-yl)-1,3-dioxoisoindolin-5-yl)glycyl)-7-azaspiro[3.5]nonan-2-yl)piperazin-1-yl)phenyl)amino)-9H-purin-9-yl)cyclobutyl)-2-phenylacetamide]	0/0/0%	0/0/0%	0/0/0%	50%	70%	50%
O=C1CC[C@H](N2C(=O)c3ccc(OCC(=O)N4CCC5(CC4)CC(N4CCN(c6ccc(Nc7ncnc8c7ncn8[C@H]7C[C@@H](NC(=O)Cc8ccccc8)C7)cc6)CC4)C5)cc3C2=O)C(=O)N1 [Compound 208, N-((1s,3s)-3-(6-((4-(4-(7-(2-((2-(2,6-dioxopiperidin-3-yl)-1,3-dioxoisoindolin-5-yl)oxy)acetyl)-7-azaspiro[3.5]nonan-2-yl)piperazin-1-yl)phenyl)amino)-9H-purin-9-yl)cyclobutyl)-2-phenylacetamide]	10%	0%	0%	80%	70%	70%
O=C1CC[C@H](N2C(=O)c3cccc(N4CCC5(CC4)CC(N4CCN(c6ccc(Nc7ncnc8c7ncn8[C@H]7C[C@@H](NC(=O)Cc8ccccc8)C7)cc6)CC4)C5)c3C2=O)C(=O)N1 [Compound 209, N-((1s,3s)-3-(6-((4-(4-(7-(2-(2,6-dioxopiperidin-3-yl)-1,3-dioxoisoindolin-4-yl)-7-azaspiro[3.5]nonan-2-yl)piperazin-1-yl)phenyl)amino)-9H-purin-9-yl)cyclobutyl)-2-phenylacetamide]	30%	20%	10%	70%	60%	30%
O=C1CC[C@H](N2C(=O)c3ccc(N4CCC5(CC4)CC(N4CCN(c6ccc(Nc7ncnc8c7ncn8[C@H]7C[C@@H](NC(=O)Cc8ccccc8)C7)cc6)CC4)C5)cc3C2=O)C(=O)N1 [Compound 210, N-((1s,3s)-3-(6-((4-(4-(7-(2-(2,6-dioxopiperidin-3-yl)-1,3-dioxoisoindolin-5-yl)-7-azaspiro[3.5]nonan-2-yl)piperazin-1-yl)phenyl)amino)-9H-purin-9-yl)cyclobutyl)-2-phenylacetamide]	10%	0%	0%	30/30/30%	30/30/30%	30/30/30%
O=C1CC[C@H](N2C(=O)c3cccc(NCC(=O)N4CCC(CC(=O)N5CCN(c6ccc(Nc7ncnc8c7ncn8C7CC(NC(=O)Cc8ccccc8)C7)cc6)CC5)CC4)c3C2=O)C(=O)N1 (stereo partly drawn) [Compound 211, N-((1s,3s)-3-(6-((4-(4-(2-(1-((2-(2,6-dioxopiperidin-3-yl)-1,3-dioxoisoindolin-4-yl)glycyl)piperidin-4-yl)acetyl)piperazin-1-yl)phenyl)amino)-9H-purin-9-yl)cyclobutyl)-2-phenylacetamide]	30/30/30%	30/30/30%	30/30/30%	50%	50%	40%
O=C1CC[C@H](N2C(=O)c3cccc(OCC(=O)N4CCC(CC(=O)N5CCN(c6ccc(Nc7ncnc8c7ncn8C7CC(NC(=O)Cc8ccccc8)C7)cc6)CC5)CC4)c3C2=O)C(=O)N1 (stereo partly drawn) [Compound 212, N-((1s,3s)-3-(6-((4-(4-(2-(1-(2-((2-(2,6-dioxopiperidin-3-yl)-1,3-dioxoisoindolin-4-yl)oxy)acetyl)piperidin-4-yl)acetyl)piperazin-1-yl)phenyl)amino)-9H-purin-9-yl)cyclobutyl)-2-phenylacetamide]	70%	30%	20%	30%	20%	10%
